Data as given in patent US20220146497A1, “Method of Modulating a Fibrotic Condition” (The Procter & Gamble Company, priority 2019, published 2022).

Legend:
COL1A1 = assay: Red-COL1A1 mCherry reporter assay (fluorescence from reporter downstream of the endogenous COL1A1 promoter); type: cell-based, human; conditions: increasing doses, immortalized tertBJ fibroblasts, FIG. 3A
From the text: In this example, RNA interference (“RNAi”) screening was used to identify genes that appear to inhibit collagen synthesis. Immortalized human skin fibroblasts (BJhTERT, available from ATCC, Manassas, Va. were modified to place an mCherry reporter gene downstream of the endogenous promoter for COL1A1 using […] (TALENs). COL1A1 is well known for its role in the synthesis of Type I collagen, sometimes referred to as collagen I, which is a fibrillar collagen that accounts for over 90% of the collagen found in the human body. The reporter gene codes for the mCherry RFP, which can be quantitated using known fluorescent protein detection techniques. Transforming growth factor beta (“TGFβ”), a well-known COL1A1 activating cytokine, was used in a fluorescence-activated cell sorting (“FACS”) technique to select for a cell line with low endogenous expression and high levels of inducible expression of the mCherry gene. […]
Automated image acquisition and analysis was used to quantitate the fluorescent protein. […] Images were analyzed using METAXPRESS brand high-content image analysis software from Molecular Devices. The percentage of cells with positive nuclear-localizing mCherry signal above background was determined using the “Translocation-Enhanced” module. […]
This increased fluorescence directly correlates to increased collagen synthesis. […]

[1] = system: immortalized tertBJ fibroblasts cells; assay: Cell count by DAPI staining of nuclei (toxicity); type: cell-based, human; conditions: increasing concentrations, FIG. 3B
Experimental: This increased fluorescence directly correlates to increased collagen synthesis. The results of the positive control (TGFβ), the vehicle control for the TGFβ (Media Control), and the vehicle control for the alpha-ergocryptine (DMSO control) are also illustrated in FIG. 3A. […] Cell count was determined by staining the nuclei with 4′,6-diamidino-2-phenylindole (DAPI), which is a fluorescent stain that binds strongly to adenine-thymine rich regions in DNA. DAPI staining is a well-known technique for determining cell count in fluorescence microscopy.

## CC(C)C[C@H]1C(=O)N2CCC[C@H]2[C@]2(O)O[C@](NC(=O)[C@@H]3C=C4c5cccc6[nH]cc(c56)C[C@H]4N(C)C3)(C(C)C)C(=O)N12 [alpha-ergocryptine]
COL1A1
  COL1A1 expression (fluorescence of mCherry reporter): increased COL1A1 expression
[1]
  toxicity as determined by cell counts (DAPI): not toxic
